Consider 46 compounds from publication PMC7216583 (Parasites & Vectors, 2020).

Where a name gives a salt, the structure may show the parent alone.

The first assay deals with Toxoplasma gondii RH-2F tachyzoites. Nature of the assay: microbe, parasite or virus in culture. The conditions noted are these: 72 h, read-out: Parasite inhibition (%) mean.
Consider `CNC[C@H](O)c1ccc(O)c(O)c1` [L-Adrenaline (Epinephrine)], for which the inhibition of growth at 5 µM worked out at 0.4%.

Consider `CC(C)NCC(O)COc1ccc(CCOCC2CC2)cc1` (stereo not shown) [Betaxolol (Betoptic)], for which the inhibition of growth at 5 µM came to 9.5%.

Staying with this assay, now noted: 72 h, read-out: Parasite inhibition (%) mean, preliminary screen of compound library, mean.
For `C[C@H]1C[C@H]2[C@@H]3CCC4=CC(=O)C=C[C@]4(C)[C@@H]3C(=O)C[C@]2(C)[C@]1(O)C(=O)CO` [Betapar (Meprednisone)], the inhibition of growth at 5 µM is 0.9%.

With `CN(C)[C@@H](CCOc1cccc2ccccc12)c1ccccc1` [Dapoxetine hydrochloride (Priligy)], the inhibition of growth at 5 µM was -0.2%.

`Fc1cc(-c2cccc3ncc(-c4cnn(C5CCNCC5)c4)nc23)cc(F)c1CN1CCOCC1` [NVP-BSK805 2HCl]: the inhibition of growth at 5 µM amounted to 14.6%.

As for `CN1CCN(c2c(F)cc3c(=O)c(C(=O)O)cn4c3c2OCN4C)CC1` [Marbofloxacin], the inhibition of growth at 5 µM amounted to 8.7%.

With `N[C@@H](Cc1ccc(O)c(O)c1)C(=O)O` [Levodopa (Sinemet)], the inhibition of growth at 5 µM turned out to be 12.1%.

Turning to `C[C@H]1CNCCc2ccc(Cl)cc21` [Lorcaserin HCl], the inhibition of growth at 5 µM worked out at 34.8%.

Turning to `Cc1c(C(=O)NN2CCCCC2)nn(-c2ccc(Cl)cc2Cl)c1-c1ccc(Cl)cc1` [Rimonabant (SR141716)], the inhibition of growth at 5 µM is 5.1%.

`CC[C@@H]1/C=C(\C)C[C@H](C)C[C@H](OC)[C@H]2O[C@@](O)(C(=O)C(=O)N3CCCC[C@H]3C(=O)O[C@H](/C(C)=C/[C@@H]3CC[C@H](Cl)[C@H](OC)C3)[C@H](C)[C@@H](O)CC1=O)[C@H](C)C[C@@H]2OC` [Pimecrolimus]: the inhibition of growth at 5 µM is -12.9%.

`C=C1[C@H](CO)[C@@H](O)C[C@@H]1n1cnc2c(=O)[nH]c(N)nc21` [Entecavir hydrate]: the inhibition of growth at 5 µM was determined as 9.8%.

`CCC(=O)N1CCN(c2ccc(-n3c(=O)ccc4cnc5ccc(-c6cnc7ccccc7c6)cc5c43)cc2C(F)(F)F)CC1` [Torin 1]: the inhibition of growth at 5 µM was 17.8%.

Consider `COc1cc2ncnc(-n3nc(-c4ccccn4)nc3N)c2cc1OC` [CP-466722], for which the inhibition of growth at 5 µM turned out to be 2.5%.

Turning to `Nc1ccc(-c2ccc3ncc4ccc(=O)n(-c5cccc(C(F)(F)F)c5)c4c3c2)cn1` [Torin 2], the inhibition of growth at 5 µM is 25.1%.

As for `O=C(O)[C@]1(Cc2cccc(Nc3nccs3)n2)CC[C@@H](Oc2cccc(Cl)c2F)CC1` [MK-5108 (VX-689)], the inhibition of growth at 5 µM is 60.4%.

Regarding `CN1CCc2c(c3ccccc3n2Cc2ccc(C(=O)NO)cc2)C1` [Tubastatin A HCl], the inhibition of growth at 5 µM was found to be 2.3%.

Consider `O=S(=O)(c1ccccc1)c1cnc2c(N3CCNCC3)cccc2c1` [SB-742457], for which the inhibition of growth at 5 µM is 0.6%.

`Cn1c(=O)cc(N2CCC[C@@H](N)C2)n(Cc2ccccc2C#N)c1=O` [Alogliptin (SYR-322)]: the inhibition of growth at 5 µM came to 44.1%.

On to `N[C@@H](CSCCCO)C(=O)O` [Fudosteine], for which the inhibition of growth at 5 µM is 11%.

Take `COc1cc(C(C)=O)ccc1OCCCN1CCC(c2noc3cc(F)ccc23)CC1` [Iloperidone (Fanapt)]: the inhibition of growth at 5 µM was determined as 37.8%.

For the compound `NC[C@H](CC(=O)O)c1ccc(Cl)cc1` [(R)-baclofen], the inhibition of growth at 5 µM came to 23.1%.

As for `CO[C@H]1C(=O)[C@@]2(C)[C@H]([C@@H](OC(=O)c3ccccc3)[C@@]3(O)C[C@H](OC(=O)[C@H](O)[C@@H](NC(=O)OC(C)(C)C)c4ccccc4)C(C)=C1C3(C)C)[C@]1(OC(C)=O)CO[C@@H]1C[C@H]2OC` [Cabazitaxel (Jevtana)], the inhibition of growth at 5 µM stood at 2.3%.

As to `COc1ccc2[nH]c([S+]([O-])Cc3ncc(C)c(OC)c3C)nc2c1` (stereo not shown) [Esomeprazole sodium (Nexium)], the inhibition of growth at 5 µM turned out to be 14.2%.

In the case of `COc1cc(/C=C/C(=O)N2CCN(CC(=O)N3CCCC3)CC2)cc(OC)c1OC` [Cinepazide maleate], the inhibition of growth at 5 µM was determined as 1.5%.

Regarding `NC(Cc1c[nH]c2ccc(O)cc12)C(=O)O` (stereo not shown) [5-hydroxytryptophan (5-HTP)], the inhibition of growth at 5 µM was 0%.

As to `CN[C@@H]1C[C@@H](N)[C@H](O)[C@@H](O[C@@H]2O[C@H](CO)[C@H](O)[C@@H]3OC4(O[C@@H]23)O[C@H]([C@@H](N)CO)[C@H](O)[C@H](O)[C@@H]4O)[C@@H]1O` (stereo partly shown) [Hygromycin B], the inhibition of growth at 5 µM came to 40.4%.

On to `CCCCCCOC(=O)/N=C(/N)c1ccc(NCc2nc3cc(C(=O)N(CCC(=O)OCC)c4ccccn4)ccc3n2C)cc1` [BIBR-1048 (Dabigatran)], for which the inhibition of growth at 5 µM was determined as 8.4%.

Take `CCc1nc(-c2cccc(C)c2)c(-c2ccnc(NC(=O)c3ccccc3)c2)s1` [TAK 715]: the inhibition of growth at 5 µM worked out at 22.5%.

In the case of `CNC(=O)c1ccc(N2C(=S)N(c3cnc(C#N)c(C(F)(F)F)c3)C(=O)C23CCC3)cc1F` [ARN-509], the inhibition of growth at 5 µM came out at 28.7%.

`Cc1cc(C)c(/C=C2\C(=O)Nc3ccccc32)[nH]1` [Semaxanib (SU5416)]: the inhibition of growth at 5 µM was -78.8%.

Take `O=C(O)Cc1ccccc1Nc1c(Cl)cccc1Cl` [Diclofenac Diethylamine]: the inhibition of growth at 5 µM is -21.2%.

`O=C1NC(=O)/C(=C/c2ccc3c(c2)OC(F)(F)O3)S1` [AS-604850]: the inhibition of growth at 5 µM was 0.8%.

Regarding `Cc1ccc(O)c([C@H](CCN(C(C)C)C(C)C)c2ccccc2)c1` [Tolterodine tartrate (Detrol LA)], the inhibition of growth at 5 µM worked out at 2.2%.

Still in this assay, the particulars now being: 72 h, read-out: Parasite inhibition (%) mean, preliminary screen, mean.
In the case of `N#C[C@@H]1C[C@@H]2C[C@H]2N1C(=O)[C@@H](N)C12CC3CC(CC(O)(C3)C1)C2` [Saxagliptin (BMS-477118,Onglyza)], the inhibition of growth at 5 µM came to 9.7%.

With `C/C(=C\C(=O)Nc1ccccc1C(=O)O)c1ccc2ccccc2c1` [BIBR 1532], the inhibition of growth at 5 µM is 0.4%.

Regarding `CC(C)OC(=O)OCOP(=O)(CO[C@H](C)Cn1cnc2c(N)ncnc21)OCOC(=O)OC(C)C` [Tenofovir Disoproxil Fumarate], the inhibition of growth at 5 µM worked out at 0.5%.

`Nc1ncnc2[nH]cnc12` [Adenine HCl]: the inhibition of growth at 5 µM was 22.6%.

For `Cn1c(=O)n(-c2ccc(C(C)(C)C#N)cc2)c2c3cc(-c4cnc5ccccc5c4)ccc3ncc21` [BEZ235 (NVP-BEZ235)], the inhibition of growth at 5 µM was determined as 5.6%.

`NC1=N[C@@]2(c3cc(NC(=O)c4ccc(F)cn4)ccc3F)COC[C@H]2CS1` [LY2886721]: the inhibition of growth at 5 µM was found to be 35.7%.

With `Cc1ccc(-n2nc(C(C)(C)C)cc2NC(=O)Nc2ccc(OCCN3CCOCC3)c3ccccc23)cc1` [BIRB 796 (Doramapimod)], the inhibition of growth at 5 µM is 8.9%.

As to `O=C(O)[C@H](CC(=O)N1C[C@H]2CCCC[C@H]2C1)Cc1ccccc1` [Mitiglinide calcium], the inhibition of growth at 5 µM turned out to be 0.9%.

`CCOc1cc2ncc(C#N)c(Nc3ccc(F)c(Cl)c3)c2cc1NC(=O)/C=C/CN(C)C` [Pelitinib (EKB-569)]: the inhibition of growth at 5 µM was -28.8%.

With `CCN(CC)CC#CCOC(=O)C(O)(c1ccccc1)C1CCCCC1` (stereo not shown) [Oxybutynin (Ditropan)], the inhibition of growth at 5 µM was -3.2%.

`Oc1nc(-c2ccc(C(F)(F)F)cc2)nc2c1CSCC2` [XAV-939]: the inhibition of growth at 5 µM was -38.8%.

`CCN(CCO)CCCOc1ccc2c(Nc3cc(CC(=O)Nc4cccc(F)c4)n[nH]3)ncnc2c1` [Barasertib (AZD1152-HQPA)]: the inhibition of growth at 5 µM stood at 54.4%.

For `Nc1nc(N)c2nc(-c3cccc(O)c3)c(-c3cccc(O)c3)nc2n1` [TG100-115], the inhibition of growth at 5 µM worked out at 9.5%.
